Experimental data: patent US9267949B2, “Alkylamino BODIPY dyes as selective fluorescent probes for proteins and mouse embryonic stem cells” (National University of Singapore, priority 2011, dated 2016)

Experiments:
human IgG [1] = assay: Structure-fluorescence relationships: Ig Orange vs BD-69 with human IgG; type: binding; settings: 10 μM each, 20 mM HEPES pH 7.4
Method: Ig Orange (BDM-69) (10 μM) and BD-69 (10 μM) were incubated with different concentrations of human IgG in 20 mM HEPES buffer (pH 7.4) and the fluorescence intensities were recorded on a SpectraMax M2 plate reader (excitation: 530 nm; emission: 590 nm), as shown in FIG. 7a. Values are represented as means (n=3) of the fluorescence fold increase after incubation with the protein.

human IgG [2] = assay: Screening the BDM library: fluorescence response against proteins and peptides; type: binding; settings: 10 μM dye
Method: Fluorescence intensities were measured using a Spectra Max Gemini XSF plate reader in a 384-well plate. BDM compounds were dissolved to a final concentration of 10 μM (20 mM HEPES buffer, pH 7.4, containing 1% DMSO) and incubated with different proteins and peptides at different serial concentrations in 20 mM HEPES buffer (pH 7.4) (FIG. 1a). The excitation wavelength was set at 510 nm, and the emission spectra were recorded from 560 to 700 nm. Fluorescence fold increase ratios were determined by referring the maximum fluorescence intensity emission of BDM compounds in the presence of the screened proteins and peptides to the maximum fluorescence intensity emission of BDM compounds in 20 mM HEPES buffer (pH 7.4) (FIG. 1b).

[3] = Spectroscopic properties of the BDM library (absorbance and emission maxima); type: physicochemical
human IgG [4] = assay: Surface plasmon resonance on immobilized immunoglobulin chip; type: binding; settings: 25° C., read-out: KD (SPR, steady-state model)
Source text: The following experiments were aimed at determining the dissociation constant of the interaction between Ig Orange and human IgG. Surface Plasmon Resonance (SPR) has been extensively used to measure the binding constants between small molecules and biopolymers, 25 and we modified human IgG with biotin so that it could be immobilized on a neutravidin-coated sensor chip. Upon immobilization of the biotinylated protein on a neutravidin-coated sensor chip CM7, we performed Ig Orange titrations in duplicate with increasing concentrations of the small molecule.
Human IgG (5.0 mg, 0.033 μmol) and biotin-OSu (0.11 mg, 0.33 μmol) were dissolved in 0.1 M NaHCO3 (pH 8.5) and shaken for 1 h at 25° C. […] The fluorescence response of Ig Orange to IgG and biotinylated IgG was compared (FIG. 5). The concentration of biotinylated IgG before fluorescence and SPR experiments was determined by Bradford assay. […] Job Plot Analysis: Ig Orange (final concentrations: 0, 1.6, 3.2, 4.8, 6.4, 8.0, 9.6, 11.2, 12.8, 14.4, 16 μM) and human IgG (final concentrations: 16, 14.4, 12.8, 11.2, 9.6, 8.0, 6.4, 4.8, 3.2, 1.6, 0 μM) were incubated in PBS buffer (pH 7.3) containing 1% DMSO, and the fluorescence intensities of the different solutions were recorded on a SpectraMax M2 plate reader (excitation: 530 nm; emission: 590 nm). […]

[5] = tested on: Fab and Fc fragments of human IgG1; assay: Fluorescence increase with Fab and Fc fragments; type: binding; settings: Fab vs Fc fragments of human monoclonal IgG1
Method: FIGS. 6a and 6b show binding sensorgrams of Ig Orange (0.07, 0.21, 0.62, 1.86, 5.57 and 16.70 μM) upon injection across an immobilized immunoglobulin chip, which were fit using the equilibrium responses of a steady-state model. […] Values are represented as means (n=3) and error bars as standard deviations.
In order to identify the region of human IgG to which Ig Orange binds, we evaluated the fluorescence response of Ig Orange in the presence of human polyclonal IgG and monoclonal IgG1, the most abundant subtype. […] To confirm this observation and determine the stoichiometry of the complex between Ig Orange and the full immunoglobulin, we analyzed the interaction by means of a Job plot. A maximum fluorescence increase was detected for a 2:1 Ig Orange:immunoglobulin ratio, which supported our observation that the preferred binding region of Ig Orange corresponded to the Fab fragments of the immunoglobulin (FIG. 7b). […] With this first adaptation of the BODIPY scaffold to a solid-phase approach we accelerated the development of alkylamino BODIPY-based fluorescent probes, being Ig Orange the first immunoglobulin fluorescent sensor.

human IgG [6] = assay: Fluorescence-based fractional saturation curve; settings: 10 μM dye, 20 mM HEPES pH 7.4, exc 530 nm, em 590 nm; read-out: dissociation constant Kd (fluorescence binding saturation curve)
Method: Ig Orange (10 μM) was incubated with different concentrations of human IgG in 20 mM HEPES buffer (pH 7.4) and the fluorescence intensities were recorded on a SpectraMax M2 plate reader (excitation: 530 nm; emission: 590 nm) (FIG. 9).

[7] = Quantum yield measurements; type: physicochemical; settings: referred to Rhodamine B in EtOH, excitation 510 nm, emission integrated 540-800 nm
In short: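 Integrated fluorescence emission from 540 to 800 nm was referenced to Rhodamine B in EtOH (Φ=0.70) after excitation at 510 nm. Quantum yield was calculated with correction for solvent refractive index and absorbance at the excitation wavelength.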

[8] = in EtOH, excitation at 510 nm; cited from earlier work

| λmax (ABS) [3] [nm] | λmax (EM) [3] [nm] | φ (quantum yield) [7] | Structure (SMILES) | also measured |
| --- | --- | --- | --- | --- |
| 574 | 594 | 0.32 | CC1=CC(/C=C/c2ccc(/C=C/c3ccccc3)cc2)=[N+]2C1=C(CCN)c1cccn1[B-]2(F)F [BDM-69] | higher fluorescence increase of Ig Orange relative to BD-69 vs. human IgG (human IgG [1]): 15 fold; turn-on fluorescence increase in the presence of human IgG (human IgG [2]; 20 mM HEPES buffer pH 7.4): 75 fold; selectivity profile against proteins and peptides (human IgG [2]; 20 mM HEPES pH 7.4, exc 510 nm): best selectivity profile among the whole library; Kd (human IgG [4]): 71.7 ± 0.6 µM; preferred binding region of the immunoglobulin [5]: preferred binding to the Fab region; Kd (human IgG [6]): 14.1 ± 0.9 µM |
| 556 | 571 | 0.14 | COc1ccc(/C=C/C2=[N+]3C(=C(CCN)c4cccn4[B-]3(F)F)C(C)=C2)cc1[N+](=O)[O-] [BDM-350] | – |
| 573 | 682 | 0.03 | CC1=CC(/C=C/c2cccc(N3CCCCC3)c2[N+](=O)[O-])=[N+]2C1=C(CCN)c1cccn1[B-]2(F)F [BDM-356] | – |
| 585 | 687 | 0.04 | CC1=CC(/C=C/c2cccc(N3CCCC3)c2[N+](=O)[O-])=[N+]2C1=C(CCN)c1cccn1[B-]2(F)F [BDM-357] | – |
| 559 | 574 | 0.83 | COc1ccc(/C=C/C2=[N+]3C(=C(CCN)c4cccn4[B-]3(F)F)C(C)=C2)c(F)c1 [BDM-359] | – |
| 553 | 564 | 0.51 | CC1=CC(/C=C/c2ccc(SC(F)(F)F)cc2)=[N+]2C1=C(CCN)c1cccn1[B-]2(F)F [BDM-363] | – |
| 549 | 563 | 0.24 | CC1=CC(/C=C/c2ccccc2OC(F)(F)F)=[N+]2C1=C(CCN)c1cccn1[B-]2(F)F [BDM-365] | – |
| 554 | 570 | 0.30 | CC1=CC(/C=C/c2ccsc2)=[N+]2C1=C(CCN)c1cccn1[B-]2(F)F [BDM-369] | – |
| 590 | 630 | 0.03 | CC1=CC(/C=C/c2ccc(-c3ccc(Cl)cc3)o2)=[N+]2C1=C(CCN)c1cccn1[B-]2(F)F [BDM-371] | – |
| 561 | 578 | 0.55 | COc1ccc(/C=C/C2=[N+]3C(=C(CCN)c4cccn4[B-]3(F)F)C(C)=C2)c(Cl)c1OC [BDM-372] | – |
| 586 | – | 0.04 | CC1=CC(/C=C/c2ccc(N(C)C)c3ccccc23)=[N+]2C1=C(CCN)c1cccn1[B-]2(F)F [BDM-377] | – |
| 563 | 585 | 0.41 | CC1=CC(/C=C/c2ccc(OCc3ccc(F)cc3)cc2)=[N+]2C1=C(CCN)c1cccn1[B-]2(F)F [BDM-378] | – |
| 551 | 565 | 0.32 | CC1=CC(/C=C/c2ccccc2I)=[N+]2C1=C(CCN)c1cccn1[B-]2(F)F [BDM-384] | – |
| 554 | 563 | 0.31 | CC1=CC(/C=C/c2cccc(C=O)c2)=[N+]2C1=C(CCN)c1cccn1[B-]2(F)F [BDM-391] | – |
| 570 | 614 | 0.10 | CCOc1cc(/C=C/C2=[N+]3C(=C(CCN)c4cccn4[B-]3(F)F)C(C)=C2)ccc1O [BDM-397] | – |
| 565 | 590 | 0.85 | COC(=O)c1cc(OC)cc(OC)c1/C=C/C1=[N+]2C(=C(CCN)c3cccn3[B-]2(F)F)C(C)=C1 [BDM-401] | – |
| 558 | 570 | 0.12 | CC1=CC(/C=C/c2ccc(Br)cc2)=[N+]2C1=C(CCN)c1cccn1[B-]2(F)F [BDM-409] | – |
| 562 | 576 | 0.12 | CC1=CC(/C=C/c2ccc(-c3ccccc3)c(F)c2)=[N+]2C1=C(CCN)c1cccn1[B-]2(F)F [BDM-425] | – |
| 564 | 586 | 0.23 | CCOc1ccc(/C=C/C2=[N+]3C(=C(CCN)c4cccn4[B-]3(F)F)C(C)=C2)cc1 [BDM-429] | – |
| 565 | 592 | 0.99 | CC1=CC(/C=C/c2c(C)nn(C)c2C)=[N+]2C1=C(CCN)c1cccn1[B-]2(F)F [BDM-430] | – |
| 555 | 565 | 0.39 | CC1=CC(/C=C/c2ccc(Oc3ccc(C(C)(C)C)cc3)cc2)=[N+]2C1=C(CCN)c1cccn1[B-]2(F)F [BDM-435] | – |
| 555 | 566 | 0.21 | CC1=CC(/C=C/c2ccc(Cl)c(F)c2)=[N+]2C1=C(CCN)c1cccn1[B-]2(F)F [BDM-437] | – |
| 563 | 589 | 0.37 | CC1=CC(/C=C/c2cc3ccccc3c3ccccc23)=[N+]2C1=C(CCN)c1cccn1[B-]2(F)F [BDM-440] | – |
| – | – | – | CCN(CC)c1ccc2c(-c3ccccc3C(=O)O)c3ccc(=[N+](CC)CC)cc-3oc2c1.[Cl-] [Rhodamine B] | Quantum yield of standard (ΦRho-B) [8]: 0.70 |
